Measurements reported in US20220119411A1, “IMMUNOMODULATORS, COMPOSITIONS AND METHODS THEREOF” (BETTA PHARMACEUTICALS CO., LTD, priority 2018, published 2022).

Molecular target: T1, PD-1/PD-L1 protein/protein interaction (Homo sapiens, UniProt Q9NZQ7)
T1 construct: Recombinant human PD-L1 protein (19-238) with a His-tag at the C-terminus; purchased AcroBiosystems PD1-H5229 (PD-L1); PD1-H5257 (PD-1)
Test: PD-1/PD-L1 homogenous time-resolved fluorescence (HTRF) binding assay
Settings: recombinant human PD-L1 (19-238)-His 10 nM, human PD-1 (25-167)-Fc 3 nM, 25° C., PBS pH 7.4
Protocol: Resolved Fluorescence (HTRF) Binding Assay
The assays were conducted in a standard black 384-well polystyrene plate with a final volume of 20 μL. Inhibitors were first serially diluted in DMSO and then added to the plate wells before the addition of other reaction components. The final concentration of DMSO in the assay was 1%. The assays were carried out at 25° C. in the PBS buffer (pH 7.4) with 0.05% Tween-20 and 0.1% BSA. Recombinant human PD-L1 protein (19-238) with a His-tag at the C-terminus was purchased from AcroBiosy stems (PD1-H5229). Recombinant human PD-1 protein (25-167) with Fc tag at the C-terminus was also purchased from AcroBiosystems (PD1-H5257). PD-L1 and PD-1 proteins were diluted in the assay buffer and 10 μL was added to the plate well. Plates were centrifuged and proteins were preincubated with inhibitors for 40 min. The incubation was followed by the addition of 10 μL of HTRF detection buffer supplemented with Europium cryptate-labeled anti-human IgG (PerkinElmer-AD0212) specific for Fc and anti-His antibody conjugated to SureLight®—Allophycocyanin (APC, PerkinElmer-AD0059H). After centrifugation, the plate was incubated at 25° C. for 60 min. Before reading on a PHERAstar FS plate reader (665 nm/620 nm ratio). Final concentrations in the assay were—3 nM PD1, 10 nM PD-L1, 1 nM europium anti-human IgG and 20 nM anti-His-Allophycocyanin. IC50 determination was performed by fitting the curve of percent control activity versus the log of the inhibitor concentration using the GraphPad Prism 5.0 software.
Data obtained for the Example compounds using the PD-1/PD-L1 homogenous time-resolved fluorescence (HTRF) binding assay described in Example A is provided in Table 2.

T1 sequence (Q9NZQ7 19-238): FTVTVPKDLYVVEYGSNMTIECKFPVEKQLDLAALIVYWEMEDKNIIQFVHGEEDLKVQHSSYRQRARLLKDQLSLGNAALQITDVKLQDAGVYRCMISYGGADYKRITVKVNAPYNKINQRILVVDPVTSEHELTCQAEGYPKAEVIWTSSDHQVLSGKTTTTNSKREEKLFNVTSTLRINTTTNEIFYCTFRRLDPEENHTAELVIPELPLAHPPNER

IC50 [nM]	SMILES
100 to 200	O=C(O)CCN1CCc2nc(C(=O)N3CCCc4c(-c5cccc(OCCN6CCOCC6)c5)cccc43)oc2C1 [Example 54, 3-(2-(5-(3-(2-morpholinoethoxy)phenyl)-1,2,3,4-tetrahydroquinoline-1-carbonyl)-6,7-dihydrooxazolo[5,4-c]pyridin-5(4H)-yl)propanoic acid]
25 to 100	CN1CCc2c(-c3cccc4c3CCN4C(=O)c3nc4c(s3)CN(CC(=O)O)CC4)cccc21 [Example 1, 2-(2-(1′-methyl-[4,4′-biindoline]-1-carbonyl)-6,7-dihydrothiazolo[5,4-c]pyridin-5(4H)-yl)acetic acid]
≤ 25	Cn1ncc2c(-c3cccc4c3CCN4C(=O)c3nc4c(s3)CN(CC(=O)O)CC4)cccc21 [Example 30, 2-(2-(4-(1-methyl-1H-indazol-4-yl)indoline-1-carbonyl)-6,7-dihydrothiazolo[5,4-c]pyridin-5(4H)-yl)acetic acid]
25 to 100	O=C(O)CN1CCc2nc(C(=O)N3CCc4c(-c5ccc6c(c5)OCCO6)cccc43)sc2C1 [Example 55, 2-(2-(4-(2,3-dihydrobenzo[b][1,4]dioxin-6-yl)indoline-1-carbonyl)-6,7-dihydrothiazolo[5,4-c]pyridin-5(4H)-yl)acetic acid]
≤ 25	COc1cccc(-c2cccc3c2CCN3C(=O)c2nc3c(s2)CN(CC(=O)O)CC3)c1 [Example 3, 2-(2-(4-(3-methoxyphenyl)indoline-1-carbonyl)-6,7-dihydrothiazolo[5,4-c]pyridin-5(4H)-yl)acetic acid]
≤ 25	Cc1c(NC(=O)c2ccccn2)cccc1-c1cccc2c1CCN2C(=O)c1nc2c(s1)CN(CC(=O)O)CC2 [Example 27, 2-(2-(4-(2-methyl-3-(picolinamido)phenyl)indoline-1-carbonyl)-6,7-dihydrothiazolo[5,4-c]pyridin-5(4H)-yl)acetic acid]
≤ 25	Cc1c(OCCCN2CCCC2)cccc1-c1cccc2c1CCN2C(=O)c1ncc(CNCCO)s1 [Example 45, (5-(((2-hydroxyethyl)amino)methyl)thiazol-2-yl)(4-(2-methyl-3-(3-(pyrrolidin-1-yl)propoxy)phenyl)indolin-1-yl)methanone]
100 to 200	Cn1ncc2c(-c3cccc4c3CCN4C(=O)c3cn4c(n3)CNCC4)cccc21 [Example 48, (4-(1-methyl-1H-indazol-4-yl)indolin-1-yl)(5,6,7,8-tetrahydroimidazo[1,2-a]pyrazin-2-yl)methanone]
≤ 25	O=C(O)CN1CCc2nc(C(=O)N3CCc4c(-c5cccc(NC(=O)CCN6CCC(O)C6)c5)cccc43)sc2C1 (stereo not shown) [Example 14, 2-(2-(4-(3-(3-(3-hydroxypyrrolidin-1-yl)propanamido)phenyl)indoline-1-carbonyl)-6,7-dihydrothiazolo[5,4-c]pyridin-5(4H)-yl)acetic acid]
≤ 25	O=C(O)CN1CCc2nc(C(=O)N3CCc4c(-c5cccc(CCCCN6CCOCC6)c5)cccc43)sc2C1 [Example 16, 2-(2-(4-(3-(4-morpholinobutyl)phenyl)indoline-1-carbonyl)-6,7-dihydrothiazolo[5,4-c]pyridin-5(4H)-yl)acetic acid]
≤ 25	Cc1nc(C(=O)N2CCc3c(-c4cccc5c4CCN5C(=O)CCN4CCC(O)C4)cccc32)sc1CNCCO (stereo not shown) [Example 46, 1-(1′-(5-(((2-hydroxyethyl)amino)methyl)-4-methylthiazole-2-carbonyl)-[4,4′-biindolin]-1-yl)-3-(3-hydroxypyrrolidin-1-yl)propan-1-one]
≤ 25	Cc1c(NC(=O)CCN2CCC(O)C2)cccc1-c1cccc2c1CCN2C(=O)c1nc2c(n1C)CN(CC(=O)O)CC2 (stereo not shown) [Example 20, 2-(2-(4-(3-(3-(3-hydroxypyrrolidin-1-yl)propanamido)-2-methylphenyl)indoline-1-carbonyl)-3-methyl-3,4,6,7-tetrahydro-5H-imidazo[4,5-c]pyridin-5-yl)acetic acid]
≤ 25	Cc1c(OCCCN2CCC(O)C2)cccc1-c1cccc2c1CCN2C(=O)c1nnc([C@@H]2CCCN2)s1 (stereo partly drawn) [Example 44, (4-(3-(3-(3-hydroxypyrrolidin-1-yl)propoxy)-2-methylphenyl)indolin-1-yl)(5-((S)-pyrrolidin-2-yl)-1,3,4-thiadiazol-2-yl)methanone]
≤ 25	Cc1c(OCCCN2CCC(O)C2)cccc1-c1cccc2c1CCN2C(=O)c1nc2c(n1C)CN(CC(=O)O)CC2 (stereo not shown) [Example 36, 2-(2-(4-(3-(3-(3-hydroxypyrrolidin-1-yl)propoxy)-2-methylphenyl)indoline-1-carbonyl)-3-methyl-3,4,6,7-tetrahydro-5H-imidazo[4,5-c]pyridin-5-yl)acetic acid]
≤ 25	O=C(O)CN1CCc2nc(C(=O)N3CCc4c(-c5cccc(OCCCN6CCC(O)C6)c5)cccc43)sc2C1 (stereo not shown) [Example 7, 2-(2-(4-(3-(3-(3-hydroxypyrrolidin-1-yl)propoxy)phenyl)indoline-1-carbonyl)-6,7-dihydrothiazolo[5,4-c]pyridin-5(4H)-yl)acetic acid]
≤ 25	O=C(O)CN1CCc2nc(C(=O)N3CCc4c(-c5ccc(NC(=O)CCN6CCC(O)C6)cc5)cccc43)sc2C1 (stereo not shown) [Example 49, 2-(2-(4-(4-(3-(3-hydroxypyrrolidin-1-yl)propanamido)phenyl)indoline-1-carbonyl)-6,7-dihydrothiazolo[5,4-c]pyridin-5(4H)-yl)acetic acid]
≤ 25	Cn1c(C(=O)N2CCCc3c(-c4cccc(OCCN5CCOCC5)c4)cccc32)nc2c1CN(CC(=O)O)CC2 [Example 51, 2-(3-methyl-2-(5-(3-(2-morpholinoethoxy)phenyl)-1,2,3,4-tetrahydroquinoline-1-carbonyl)-3,4,6,7-tetrahydro-5H-imidazo[4,5-c]pyridin-5-yl)acetic acid]
≤ 25	Cn1c(C(=O)N2CCc3c(-c4cccc5c4CCN5C(=O)CCN4CCC(O)C4)cccc32)nc2c1CN(CC(=O)O)CC2 (stereo not shown) [Example 35, 2-(2-(1′-(3-(3-hydroxypyrrolidin-1-yl)propanoyl)-[4,4′-biindoline]-1-carbonyl)-3-methyl-3,4,6,7-tetrahydro-5H-imidazo[4,5-c]pyridin-5-yl)acetic acid]
≤ 25	Cc1c(NC(=O)CCN2CCC(O)C2)cccc1-c1cccc2c1CCN2C(=O)c1nc2c(s1)CN(CC(=O)O)CC2 (stereo not shown) [Example 13, 2-(2-(4-(3-(3-(3-hydroxypyrrolidin-1-yl)propanamido)-2-methylphenyl)indoline-1-carbonyl)-6,7-dihydrothiazolo[5,4-c]pyridin-5(4H)-yl)acetic acid]
≤ 25	O=C(O)CN1CCc2nc(C(=O)N3CCc4c(-c5cccc6c5CCN6CCCN5CCOCC5)cccc43)sc2C1 [Example 6, 2-(2-(1′-(3-morpholinopropyl)-[4,4′-biindoline]-1-carbonyl)-6,7-dihydrothiazolo[5,4-c]pyridin-5(4H)-yl)acetic acid]
25 to 100	O=C(O)CN1CCc2nc(C(=O)N3CCCc4c(-c5ccccc5)cccc43)sc2C1 [Example 28, 2-(2-(5-phenyl-1,2,3,4-tetrahydroquinoline-1-carbonyl)-6,7-dihydrothiazolo[5,4-c]pyridin-5(4H)-yl)acetic acid]
≤ 25	Cc1c(Nc2nccc3cc(CN4CCCC[C@H]4C(=O)O)cnc23)cccc1-c1cccc2c1CCN2C(=O)c1nc2c(s1)CNCC2 [Example 58, (S)-1-((8-((2-methyl-3-(1-(4,5,6,7-tetrahydrothiazolo[5,4-c]pyridine-2-carbonyl)indolin-4-yl)phenyl)amino)-1,7-naphthyridin-3-yl)methyl)piperidine-2-carboxylic acid]
